According to US20230096528A1, “Pharmaceutical Composition for Treatment or Prevention of Multiple Inflammatory disorders” (priority 2019, published 2023):

Key:
[1] = test system: murine air pouch model of inflammation; assay: Murine air pouch model of inflammation, LPS induction (Example 2); assay type: in vivo, C57BL/6 mice
Experimental: This example provides the results of investigating DA to modulate immune response in a murine air pouch model of inflammation. […] What was measured was infiltrating cell counts with air pouch exudates, IL-6 levels in air pouch exudates by an ELISA assay (R&D Systems Cat. No. M6000B), and multiple cytokine analysis (Mouse 32Plex Kit MilliporeSigma Cat. No. MCYTMAG70PMX32BK).
Duarte et al., Current Protocols in Pharmacology, 5.6.1-5.6.8 Mar. 2012, describes “The subcutaneous air pouch is an in vivo model that can be used to study acute and chronic inflammation, the resolution of the inflammatory response, and the oxidative stress response. Injection of irritants into an air pouch in rats or mice induces an inflammatory response that can be quantified by the volume of exudate produced, the infiltration of cells, and the release of inflammatory mediators. The model presented in this unit has been extensively used to identify potential anti-inflammatory drugs.” It can be used to study localized inflammation without systemic effects. But in this case the drug was administered orally, by gavage BID.
Test administration was 5 ml/kg body weight BID dosing with 8 hour intervals. The air pouch was created in each test BL6 mouse by sc injection of 1.5 ml/mouse of sterile air on day 0 and 1.5 ml/mouse of sterile air on day 3. Compounds (or control distilled water) were administered BID on day −2. LPS (0.75 mg/animal in 1 ml endotoxin free PBS) was administered at hour 0 or one hour after dosing with test compounds. Plasma samples were collected at termination and exudates of the air pouches for all groups. Cell count analysis and IL-6 assays were conducted at the animal facility and plasma and exudate samples were sent out for cytokine analysis.

[2] = test system: leptin-deficient (ob/ob) mice; assay: Body weight and biomarker study in leptin-deficient (ob/ob) mice, 56 days (Example 10); assay type: in vivo; settings: 50 mg/kg gavage BID
Experimental: Therefore, ob/ob mice are a predictive in vivo model for these indications. This example provides results of a study of DA plus another compound (CQL) on body weight in leptin-deficient (ob/ob) mice. Vehicle group (N=14) were treated with distilled water by gavage BID, and DA (N=14) at a dose of 50 mg/kg by gavage BID. The study period was for 56 days+2-3 days testing period afterward. Body weight change measured 3× per week, food intake was measure twice per week, metabolic biomarkers (blood glucose, blood insulin, blood HbA1c, HDL, LDL, triglyceride and bile acid) were measured at beginning and end of study. Cytokine analysis was measured at end on Day 56.

[3] = test system: biomarkers (chemokines, CSFs, interleukins, IFNs); assay: Biomarkers compared across many studies (Table 2); assay type: in vivo; settings: PO 92.4 mg/kg DA BID
Experimental: The many examples provided herein show the effect of the denatonium salts on various in vivo and in vitro models of various disease indications. In addition, blood samples were taken from the tested (and control) animals and various biomarkers were measured and compared. FIGS. 70A-C show graphs comparing biomarkers across many studies. […] It should be noted that clusters of multiple biomarkers predict effectiveness for each disease indication and that grouping is shown in FIG. 71.

[4] = test system: healthy mouse; assay: Cytokine profile and routes of administration in healthy mouse (Example 6); settings: healthy mice
[5] = 96.4 mg/kg BID gavage pre-treatment, LPS, vs vehicle
[6] = higher dose of DA, air pouch model, LPS
[7] = day 56, no significant difference

SMILES: CC(=O)[O-].CC[N+](CC)(CC(=O)Nc1c(C)cccc1C)Cc1ccccc1 [DA, denatonium acetate]
- IL-6 levels in air pouch exudates [1, 5]: significantly lower
- Infiltrating cell count in air pouch exudates [1, 5]: significantly lower
- IL-1b cytokine level [1, 6]: significant reduction
- IL-10 cytokine level [1, 6]: significant reduction
- IL-17 cytokine level [1, 6]: significant reduction
- TNF-1a cytokine level [1, 6]: significant reduction
- Infiltrating cell counts in air pouch exudates following LPS induction ([1]; pre-treatment by gavage BID, in a dose-dependent manner): decreased
- Body weight ([2]; 56 days): no significant effect
- Daily food consumption ([2]; 56 days): no significant effect
- Serum HBA1c levels ([2]; 56 days): no significant effect
- Serum HDL levels ([2]; 56 days): no significant effects
- Serum glucose levels ([2]; 56 days): significantly decreased
- Serum insulin levels ([2]; 56 days): no significant effect
- Serum LDL levels ([2]; 56 days, vs vehicle): significantly lowered
- Serum bile acids levels ([2]; 56 days, vs vehicle): significantly increased
- Serum triglyceride levels ([2]; 56 days, vs vehicle): significantly lowered
- IL-1β level decreased by, compared to vehicle group [2, 7]: 19.1%
- IL-6 level decreased by, compared to vehicle group [2, 7]: 61.4%
- MCP-1 level decreased by, compared to vehicle group [2, 7]: 20.9%
- RANTES level decreased by, compared to vehicle group [2, 7]: 1.7%
- Eotaxin: Decreased Percentage Compared to Vehicle [3]: −18.6%
- G-CSF: Decreased Percentage Compared to Vehicle [3]: −37.5%
- GM-CSF: Decreased Percentage Compared to Vehicle [3]: −2.3%
- IFN-γ: Decreased Percentage Compared to Vehicle [3]: −37.3%
- IL-1α: Decreased Percentage Compared to Vehicle [3]: −18.2%
- IL-1β: Decreased Percentage Compared to Vehicle [3]: −12.0%
- IL-3: Decreased Percentage Compared to Vehicle [3]: −74.5%
- IL-5: Decreased Percentage Compared to Vehicle [3]: −29.1%
- IL-6: Decreased Percentage Compared to Vehicle [3]: −34.2%
- IL-10: Decreased Percentage Compared to Vehicle [3]: −92.5%
- IL-12 (p70): Decreased Percentage Compared to Vehicle [3]: −28.0%
- IL-17: Decreased Percentage Compared to Vehicle [3]: −21.2%
- KC: Decreased Percentage Compared to Vehicle [3]: −21.6%
- LIX: Decreased Percentage Compared to Vehicle [3]: −7.3%
- MCP-1: Decreased Percentage Compared to Vehicle [3]: −24.2%
- MIG: Decreased Percentage Compared to Vehicle [3]: −13.2%
- MIP-1α: Decreased Percentage Compared to Vehicle [3]: −3.4%
- MIP-1β: Decreased Percentage Compared to Vehicle [3]: −10.2%
- MIP-2: Decreased Percentage Compared to Vehicle [3]: −76.3%
- RANTES: Decreased Percentage Compared to Vehicle [3]: −20.6%
- Biomarker (cytokine) effects after iv dosing ([4]; iv bolus QD, 1 mg/kg and 3 mg/kg (either iv dose)): no biomarker (cytokine) effects
- Side effects by route of administration ([4]; seen only with iv administration (1 and 3 mg/kg QD)): toxic side effects
